# Experimental data published in patent US20040092549A1, “Methods and compositions for selective cancer chemotherapy” (priority 2001, published 2004).
# Tests used:
# melanoma cells = settings: treatment as in Example 2
# Experimental: (§2) Cultures are re-fed periodically with additions of respective supplements, with or without medium change as indicated. Controls consist of cells receiving growth medium without added supplement.
# (§3) The following day, threonate treatment is initiated using one of two protocols.
# (§4) In one protocol (short exposure), monolayers are washed and exposed directly to 1 mL/well of 7.5-30 mM threonate (prepared in Ringer's solution) for brief periods at 37 C. as described by Fay and Verlangieri (referenced above). […] After exposure, the solution is removed and replaced by growth medium. […]
# (§5) Cell survival following treatment is assessed at predetermined intervals by taking viable cell counts using a Neubauer haemocytometer. Viable cells are scored as those capable excluding trypan blue as previously described (Harakeh and Jariwalla, Am.J.Clin.Nutr. 54:1231S-1235S (1991)). […]
# (§6) The induction of apoptosis following treatment of various tumor cell types with the Test compositions and controls described in Example 1 is evaluated using an enzyme-linked immunoassay (“ELISA”) developed by Boehringer-Mannheim (Indianapolis, Ind.). […] The presence and level of nucleosomal fragments in cytoplasmic lysates after different treatments is determined using the procedure specified in the cell-death detection ELISA kit, supplied by Boehringer-Mannheim. […]
# hepatoma cells = settings: treatment as in Example 2
# Experimental: as §2, §3, §4, §5, §6
# [1] = test system: Malme-3 Normal Human Skin Fibroblasts; assay: Cell-death detection ELISA (apoptosis), Malme-3 normal skin fibroblasts; type: cell-based
# Experimental: (§1) Working stock solutions (10× strength) are made in sterile water immediately before use. For comparative evaluation, stock solutions of Test 2 and Test 4 solutions are prepared in sterile water, normalized to contain AA equivalents identical to the Test 1 stock. These stocks are stored at room temperature for use in evaluations. […] Parallel sets of wells are treated similarly with stock solutions of CA+CT and CA alone, containing the same equivalents of AA as Test 1. Control cultures are treated with an equivalent volume of sterile water. Periodic treatment with these compositions is repeated at 1-2 day intervals by direct addition of fresh solutions (without change of growth medium). […] Briefly, the ELISA assay is carried out as follows. […] The “Number of Treatments” is the total number of treatments with the Composition. The “Maximum Fold Increase in Apoptosis” is the maximal fold change in apoptosis over the control and the “Maximum Dose” is the concentration of the Composition which induces the “Maximum Fold Apoptosis” compared to the control.
# Malme-3M Melanoma = assay: Cell-death detection ELISA (apoptosis), Malme-3M melanoma; type: cell-based, Human
# Experimental: as §1
# [2] = test system: WRL-68 Normal Human Liver Cells; assay: Cell-death detection ELISA (apoptosis), WRL-68 normal liver cells; type: cell-based
# Experimental: as §1
# [3] = test system: SK-Hep-1 Liver adenocarcinoma; assay: Cell-death detection ELISA (apoptosis), SK-Hep-1 liver adenocarcinoma; type: cell-based, Human
# Experimental: as §1
# SK-N-MC Neuroblastoma = assay: Cell-death detection ELISA (apoptosis), SK-N-MC neuroblastoma; type: cell-based, Human
# Experimental: as §1
# T-84 Colon Carcinoma = assay: Cell-death detection ELISA (apoptosis), T-84 colon carcinoma; type: cell-based, Human
# Experimental: as §1
# [4] = concentration causing 2-fold change in apoptosis over control
# [5] = concentration inducing the maximum fold apoptosis
# [6] = maximal fold change over control
Compound,cell death (apoptosis) in melanoma cells as compared to normal cellular counterparts (melanoma cells),cell death (apoptosis) in hepatoma cells as compared to normal cellular counterparts (hepatoma cells),"MINIMUM APOPTOTIC DOSE, DOSE CONC. (%) [1, 4]","MAXIMUM FOLD INCREASE IN APOPTOSIS, DOSE CONC. (%) [1, 5]","MAXIMUM FOLD INCREASE IN APOPTOSIS [1, 6]","MINIMUM APOPTOTIC DOSE, DOSE CONC. (%) (Malme-3M Melanoma; [4])","MAXIMUM FOLD INCREASE IN APOPTOSIS, DOSE CONC. (%) (Malme-3M Melanoma; [5])",MAXIMUM FOLD INCREASE IN APOPTOSIS (Malme-3M Melanoma; [6]),"MINIMUM APOPTOTIC DOSE, DOSE CONC. (%) [2, 4]","MAXIMUM FOLD INCREASE IN APOPTOSIS, DOSE CONC. (%) [2, 5]","MAXIMUM FOLD INCREASE IN APOPTOSIS [2, 6]","MINIMUM APOPTOTIC DOSE, DOSE CONC. (%) [3, 4]","MAXIMUM FOLD INCREASE IN APOPTOSIS, DOSE CONC. (%) [3, 5]","MAXIMUM FOLD INCREASE IN APOPTOSIS [3, 6]","MINIMUM APOPTOTIC DOSE, DOSE CONC. (%) (SK-N-MC Neuroblastoma; [4])","MAXIMUM FOLD INCREASE IN APOPTOSIS, DOSE CONC. (%) (SK-N-MC Neuroblastoma; [5])",MAXIMUM FOLD INCREASE IN APOPTOSIS (SK-N-MC Neuroblastoma; [6]),"MINIMUM APOPTOTIC DOSE, DOSE CONC. (%) (T-84 Colon Carcinoma; [4])","MAXIMUM FOLD INCREASE IN APOPTOSIS, DOSE CONC. (%) (T-84 Colon Carcinoma; [5])",MAXIMUM FOLD INCREASE IN APOPTOSIS (T-84 Colon Carcinoma; [6])
"O=C1O[C@H]([C@@H](O)CO)C(O)=C1O [ascorbic acid (AA), Ascorbic Acid]",selective dose-dependent cell death (apoptosis),,,,,,,,,,,,,,,,,,,
Calcium Threonate [calcium threonate (CT)],selective dose-dependent cell death (apoptosis),selective dose-dependent cell death (apoptosis),,,,,,,,,,,,,,,,,,
Calcium Ascorbate,,,0.025%,0.025%,2.16 fold,0.012%,0.025%,92.8 fold,0.012%,0.012%,2.22 fold,0.006%,0.033%,12.04 fold,0.015%,0.015%,5.03 fold,>0.06%,0.033%,1.77 fold
